From patent publication US20120040951A1, “HETEROARYL COMPOUNDS USEFUL AS RAF KINASE INHIBITORS” (priority 2008, published 2012)
Read-outs that look alike come from different tables or passages of the source.

Legend:
[1] = system: phospho-ERK in melanoma derived WM-266-4 cells; assay: Mechanistic cellular assay for Raf kinase activity (phospho-ERK, Bio-Plex); assay type: cell-based; settings: treated 1-2 hr at 37° C., serum free medium, read-out: pERK EC50
How it was run: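 WM-266-4 melanoma cells (wild-type/V600D BRaf) grown overnight in 10% FBS RPMI, then treated 1–2 h at 37 °C in serum-free RPMI with eight 3-fold dilutions of compound (from 5 mM DMSO stock, 1000× dilution). Lysate phospho-ERK1,2 quantified by Bio-Plex bead immunoassay.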

[2] = molecular target: V599E Raf (Homo sapiens, UniProt P15056, V600E); assay: Biochemical FRET assay, mutant Raf (phosphorylation of MEK); settings: 0.125 nM V599E Raf, 100 nM biotin-MEK, 25 μM ATP, read-out: Raf (mut) inhibition
How it was run: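 V599E Raf (0.125 nM) preincubated 20 min with inhibitor and 100 nM biotin-MEK in HEPES pH 7.4 with Mg2+/Mn2+, then reacted with 25 μM ATP for 60 min at room temperature. EDTA-stopped; phospho-MEK1/2 (Ser217/221) detected by Eu/APC TR-FRET after 90 min.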

Sequence of V599E Raf (P15056 whole entry V600E): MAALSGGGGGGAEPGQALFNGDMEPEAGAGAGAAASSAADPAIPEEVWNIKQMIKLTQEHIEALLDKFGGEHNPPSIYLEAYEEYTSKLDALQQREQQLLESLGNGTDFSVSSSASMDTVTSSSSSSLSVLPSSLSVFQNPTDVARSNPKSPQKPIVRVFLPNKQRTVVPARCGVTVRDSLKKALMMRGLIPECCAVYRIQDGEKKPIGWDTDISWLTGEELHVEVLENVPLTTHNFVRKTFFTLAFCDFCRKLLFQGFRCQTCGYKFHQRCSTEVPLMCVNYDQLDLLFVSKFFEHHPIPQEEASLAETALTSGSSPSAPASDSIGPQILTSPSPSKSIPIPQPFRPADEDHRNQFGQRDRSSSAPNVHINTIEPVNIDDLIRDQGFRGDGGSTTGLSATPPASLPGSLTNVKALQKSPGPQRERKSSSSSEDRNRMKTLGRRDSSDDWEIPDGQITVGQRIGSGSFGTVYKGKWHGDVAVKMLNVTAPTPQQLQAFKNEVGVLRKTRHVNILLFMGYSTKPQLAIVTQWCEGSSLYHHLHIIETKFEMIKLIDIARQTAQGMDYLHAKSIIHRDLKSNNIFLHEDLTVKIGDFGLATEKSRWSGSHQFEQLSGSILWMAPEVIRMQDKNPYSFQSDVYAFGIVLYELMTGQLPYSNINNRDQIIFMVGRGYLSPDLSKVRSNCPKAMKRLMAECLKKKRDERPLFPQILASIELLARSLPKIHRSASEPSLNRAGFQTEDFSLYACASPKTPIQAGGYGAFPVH

EC50 ([1]; Homo sapiens)	IC50 [2]	EC50 [1]	SMILES
1000 to 10000 nM	≤ 100 nM		CC(NC(=O)c1cnn2cccnc12)c1cnc(Nc2ccc(C(F)(F)F)cc2)s1 (stereo not shown) [Example 225]
100 to 1000 nM	≤ 100 nM		Cc1ccc(NC(=O)c2cc([C@H](C)NC(=O)c3cnn4ccccc34)on2)cc1C(F)(F)F [Example 227]
1000 to 10000 nM	100 to 1000 nM		O=C(Nc1ccc(Cl)c(C(F)(F)F)c1)c1ccc(CNC(=O)c2cnn3ccccc23)cc1 [Example 231]
100 to 1000 nM	≤ 100 nM		CCn1cnc2cnc(C(=O)NC(C)c3cnc(Nc4ccc(Cl)c(C(F)(F)F)c4)cn3)cc21 (stereo not shown) [Example 233]
100 to 1000 nM	≤ 100 nM		CC(NC(=O)c1cc2c(cn1)ncn2C1CCC1)c1cnc(Nc2ccc(Cl)c(C(F)(F)F)c2)cn1 (stereo not shown) [Example 234]
≤ 100 nM	≤ 100 nM		C[C@@H](NC(=O)c1cc2c(cn1)ncn2C)c1cnc(Nc2cnc(C(C)(C)C)nc2)s1 [Example 241]
≤ 100 nM	≤ 100 nM		CC(NC(=O)c1cc2c(cn1)ncn2C)c1cnc(Nc2cccc(S(=O)(=O)C(F)(F)F)c2)cn1 (stereo not shown) [Example 243]
≤ 100 nM	≤ 100 nM		COc1cc(C(F)(F)F)ccc1Nc1ncc(C(C)NC(=O)c2cc3c(cn2)ncn3C)s1 (stereo not shown) [Example 244]
≤ 100 nM	≤ 100 nM		CC(NC(=O)c1cc2c(cn1)ncn2C)c1cnc(Nc2ccc(C(F)(F)F)cc2Cl)s1 (stereo not shown) [Example 245]
100 to 1000 nM	≤ 100 nM		CC(NC(=O)c1cc2c(cn1)ncn2C)c1cnc(Nc2cnc(C(F)(F)F)nc2)s1 (stereo not shown) [Example 261]
100 to 1000 nM	≤ 100 nM		CC(NC(=O)c1cc2c(cn1)ncn2C)c1cnc(Nc2ccc(C(F)(F)F)cn2)cn1 (stereo not shown) [Example 262]
100 to 1000 nM	≤ 100 nM		CC(NC(=O)c1cc2c(cn1)ncn2C)c1cnc(Nc2ccc(C(F)(F)F)nc2Cl)s1 (stereo not shown) [Example 263]
	≤ 100 nM	100 to 1000 nM	CC(NC(=O)c1cc2c(cn1)ncn2C)c1cnc(Nc2ccc(C(F)(F)F)cn2)cn1 (stereo not shown) [Example 264]
100 to 1000 nM	≤ 100 nM		CC(NC(=O)c1cc2c(cn1)ncn2C)c1cnc(Nc2ccc(C(F)(F)F)cc2Cl)cn1 (stereo not shown) [Example 265a]
100 to 1000 nM	≤ 100 nM		COc1cc(C(F)(F)F)ccc1Nc1cnc(C(C)NC(=O)c2cc3c(cn2)ncn3C)cn1 (stereo not shown) [Example 265b]
≤ 100 nM	≤ 100 nM		CC(NC(=O)c1cc2c(cn1)ncn2C)c1cnc(Nc2ccc(F)c(S(=O)(=O)C(F)(F)F)c2)cn1 (stereo not shown) [Example 268]
≤ 100 nM	≤ 100 nM		COc1nc(C(C)(C)C)ncc1Nc1ncc(C(C)NC(=O)c2cc3c(cn2)ncn3C)s1 (stereo not shown) [Example 270]
≤ 100 nM	≤ 100 nM		CC(NC(=O)c1cc2c(cn1)ncn2C)c1cnc(Nc2cccc(C(C)(C)C(F)(F)F)c2)cn1 (stereo not shown) [Example 273]
≤ 100 nM	≤ 100 nM		CC(NC(=O)c1cc2c(cn1)ncn2C)c1cnc(Nc2cc(S(=O)(=O)C(F)(F)F)ccc2Cl)cn1 (stereo not shown) [Example 276]

EC50 ([1]; Homo sapiens)	IC50 [2]	EC50 [1]	SMILES
≤ 100 nM	≤ 100 nM		CC(NC(=O)c1cc2c(cn1)ncn2C)c1cnc(Nc2cc(C(C)(C)C)ccc2F)s1 (stereo not shown) [Example 279]
100 to 1000 nM	≤ 100 nM		CNc1nc(C(C)(C)C)ncc1Nc1ncc(C(C)NC(=O)c2cc3c(cn2)ncn3C)s1 (stereo not shown) [Example 280]
100 to 1000 nM	≤ 100 nM		COCCOc1cc(C(F)(F)F)ccc1Nc1ncc(C(C)NC(=O)c2cc3c(cn2)ncn3C)s1 (stereo not shown) [Example 282]
100 to 1000 nM	≤ 100 nM		CCOc1cc(C(F)(F)F)ccc1Nc1ncc(C(C)NC(=O)c2cc3c(cn2)ncn3C)s1 (stereo not shown) [Example 283]
≤ 100 nM	≤ 100 nM		CCn1cnc2cnc(C(=O)NC(C)c3cnc(Nc4cnc(C(C)(C)C)nc4)s3)cc21 (stereo not shown) [Example 285]
≤ 100 nM	≤ 100 nM		CC(NC(=O)c1cc2c(cn1)ncn2C1CCC1)c1cnc(Nc2cnc(C(C)(C)C)nc2)s1 (stereo not shown) [Example 286]
≤ 100 nM	≤ 100 nM		CC(NC(=O)c1cc2c(cn1)nc(N)n2C)c1cnc(Nc2cnc(C(C)(C)C)nc2)s1 (stereo not shown) [Example 287]
100 to 1000 nM	≤ 100 nM		CC(C)Oc1cc(C(F)(F)F)ccc1Nc1ncc(C(C)NC(=O)c2cc3c(cn2)ncn3C)s1 (stereo not shown) [Example 289]
≤ 100 nM	≤ 100 nM		CC(NC(=O)c1cc2c(cn1)ncn2C)c1cnc(Nc2ccc(F)c(C(C)(C)C(F)(F)F)c2)s1 (stereo not shown) [Example 290]
100 to 1000 nM	≤ 100 nM		CCn1cnc2cnc(C(=O)NC(C)c3cnc(Nc4ccc(C(F)(F)F)nc4)s3)cc21 (stereo not shown) [Example 291]
≤ 100 nM	≤ 100 nM		CC(NC(=O)c1cc2c(cn1)ncn2C1CCC1)c1cnc(Nc2ccc(C(F)(F)F)nc2)s1 (stereo not shown) [Example 292]
≤ 100 nM	100 to 1000 nM		CCc1nc(C(C)(C)C)ncc1Nc1ncc(C(C)NC(=O)c2cc3c(cn2)ncn3C)s1 (stereo not shown) [Example 295]
100 to 1000 nM	≤ 100 nM		CC(NC(=O)c1cn2ccnc2cn1)c1cnc(Nc2ccc(C(F)(F)F)cc2)s1 (stereo not shown) [Example 296]
≤ 100 nM	≤ 100 nM		C[C@@H](NC(=O)c1cn2c(Br)cnc2cn1)c1cnc(Nc2ccc(C(F)(F)F)cc2)s1 [Example 298]
100 to 1000 nM	≤ 100 nM		CC(NC(=O)c1cn2c(Cl)cnc2cn1)c1cnc(Nc2ccc(C(F)(F)F)cc2)s1 (stereo not shown) [Example 299]
1000 to 10000 nM	≤ 100 nM		CC(NC(=O)c1cn2c(C(F)(F)F)cnc2cn1)c1cnc(Nc2ccc(C(F)(F)F)cc2)s1 (stereo not shown) [Example 300]
1000 to 10000 nM	100 to 1000 nM		CC(NC(=O)c1cnc2nccn2c1)c1cnc(Nc2ccc(C(F)(F)F)cc2)s1 (stereo not shown) [Example 309]
1000 to 10000 nM	≤ 100 nM		CC(NC(=O)c1cnc2ncccn12)c1cnc(Nc2ccc(C(F)(F)F)cc2)s1 (stereo not shown) [Example 310]
1000 to 10000 nM	100 to 1000 nM		CC(=O)N1CCn2c(C(=O)N[C@H](C)c3ncc(C(=O)Nc4cc(C(F)(F)F)c(Cl)cn4)s3)cnc2C1 [Example 316]

EC50 ([1]; Homo sapiens)	IC50 [2]	EC50 [1]	SMILES
1000 to 10000 nM	100 to 1000 nM		C[C@@H](NC(=O)c1cnc2n1CCN(C)C2)c1ncc(C(=O)Nc2cc(C(F)(F)F)c(Cl)cn2)s1 [Example 317]
1000 to 10000 nM	≤ 100 nM		CCN1CCn2c(C(=O)NC(C)c3cnc(Nc4ccc(C(F)(F)F)cc4)s3)cnc2C1 (stereo not shown) [Example 318]
≤ 100 nM	≤ 100 nM		CC(NC(=O)c1cnn2cc(-c3cccnc3)ccc12)c1ncc(C(=O)Nc2cc(C(F)(F)F)c(Cl)cn2)s1 (stereo not shown) [Example 320]
≤ 100 nM	100 to 1000 nM		C[C@@H](NC(=O)c1cnn2cc(-c3cccnc3)ccc12)c1cc(C(=O)Nc2cccc(OC(F)(F)F)c2)on1 [Example 332]
100 to 1000 nM	100 to 1000 nM		Cc1ccc(NC(=O)c2cc([C@@H](C)NC(=O)c3cnn4cc(-c5ccncn5)cnc34)no2)cc1C(F)(F)F [Example 333]
1000 to 10000 nM	100 to 1000 nM		Cc1cn(-c2cccc(C(=O)N[C@H](C)c3ncc(C(=O)Nc4cc(C(F)(F)F)c(Cl)cn4)s3)n2)cn1 [Example 334]
100 to 1000 nM	≤ 100 nM		CC(NC(=O)c1cc2c(cn1)ncn2C)c1ccc(Nc2ccc(C(F)(F)F)cc2)nc1 (stereo not shown) [Example 339]
1000 to 10000 nM	≤ 100 nM		Cc1nc(Nc2ccc(C(F)(F)F)cc2)sc1C(C)NC(=O)c1cc2c(cn1)ncn2C (stereo not shown) [Example 340]
1000 to 10000 nM	100 to 1000 nM		Cc1nc(C(C)NC(=O)c2cc3c(cn2)ncn3C)c(C)nc1Nc1ccc(C(F)(F)F)cc1 (stereo not shown) [Example 341]
≤ 100 nM	≤ 100 nM		C[C@@H](NC(=O)c1cc2c(cn1)ncn2C1CN(S(C)(=O)=O)C1)c1cnc(Nc2ccc(C(F)(F)F)cc2)s1 [Example 346]
100 to 1000 nM	≤ 100 nM		CC(=O)N1CC(n2cnc3cnc(C(=O)N[C@H](C)c4cnc(Nc5ccc(C(F)(F)F)cc5)s4)cc32)C1 [Example 347]
≤ 100 nM	≤ 100 nM		C[C@@H](NC(=O)c1cc2c(cn1)ncn2C1CN(CCO)C1)c1cnc(Nc2ccc(C(F)(F)F)cc2)s1 [Example 348]
1000 to 10000 nM	≤ 100 nM		CC(NC(=O)c1cc2c(cn1)ncn2C)c1cnc(Nc2cc(C#N)cc(C(C)(C)C)c2)s1 (stereo not shown) [Example 350]
100 to 1000 nM	≤ 100 nM		COC(=O)c1cc(Nc2ncc(C(C)NC(=O)c3cc4c(cn3)ncn4C)s2)cc(C(C)(C)C)c1 (stereo not shown) [Example 351]
1000 to 10000 nM	100 to 1000 nM		CC(NC(=O)c1cc2c(cn1)ncn2C)c1cnc(Nc2cc(C(=O)O)cc(C(C)(C)C)c2)s1 (stereo not shown) [Example 352]
1000 to 10000 nM	≤ 100 nM		CC(NC(=O)c1cc2c(cn1)ncn2C)c1cnc(Nc2cc(C(N)=O)cc(C(C)(C)C)c2)s1 (stereo not shown) [Example 353]
1000 to 10000 nM	≤ 100 nM		CC(NC(=O)c1cc2c(cn1)ncn2CC(=O)O)c1cnc(Nc2ccc(C(F)(F)F)cc2)s1 (stereo not shown) [Example 354]
100 to 1000 nM	≤ 100 nM		CNC(=O)Cn1cnc2cnc(C(=O)NC(C)c3cnc(Nc4ccc(C(F)(F)F)cc4)s3)cc21 (stereo not shown) [Example 356]
